{"source": "a melting point compilation (Tetko et al.; mined from patent text by program, amines drawn as free bases though some values may be those of a salt)"}
{"units": {"melting point": "°C"}}
{"molecule": "CCOC(OCC)c1cc(NC(c2ccccc2)(c2ccccc2)c2ccccc2)c(F)c(Cc2ccc(F)cc2)n1", "melting point": "129 to 130"}
{"molecule": "COc1cccc(C(=C/C=C/C(=O)NCCCCCCc2cccnc2)c2cccc(OC)c2)c1", "melting point": "66 to 70"}
{"molecule": "CC(=O)c1cccc(NC(=O)CCCC(=O)Nc2cccc(C(C)=O)c2)c1", "melting point": "174 to 175"}
{"molecule": "OCc1ccc(-c2cc3c(Nc4ccc(F)c(Cl)c4)ncnc3[nH]2)cc1", "melting point": "> 300"}
{"molecule": "CCCCC[C@H]1CC[C@H](CCCCc2ccc(O)cc2)CC1", "melting point": 86}
{"molecule": "O=C(Nc1ccc2c(c1)COCC2)OCc1ccccc1", "melting point": "94 to 95"}
{"molecule": "Fc1cc(CBr)ccc1-c1nc2ccccc2o1", "melting point": "170 to 173"}
{"molecule": "COC(=O)c1ccccc1C=CC(=O)C=Cc1ccccc1C(=O)OC", "melting point": "221 to 223"}
{"molecule": "Cc1ccc(OC(=O)N2CCCC2=O)cc1", "melting point": "101 to 102"}
{"molecule": "c1ccc2c(c1)Cc1ccncc1N1OC(CN3CCOCC3)CC21", "note": "(stereo unspecified)", "melting point": 46}
{"molecule": "COc1ccc2c(n1)C1(CO2)C(=O)Nc2cccc(Br)c21", "note": "(stereo unspecified)", "melting point": "265 to 268"}
{"molecule": "CCN(CC)OC(=Nc1c(C(C)C)cccc1C(C)C)Nc1c(C(C)C)cccc1C(C)C", "melting point": "113 to 116"}
{"molecule": "CCCCCCCCc1ccc(C(=O)NN)cc1", "melting point": 90}
{"molecule": "CN1CCN(S(=O)(=O)c2ccc3c(c2)C(=O)c2ccccc2C3=O)CC1", "melting point": "216 to 218"}
{"molecule": "CC1(C)CCC(C)(C)c2cc(C(C(=O)O)C(=O)Nc3ccc(C(=O)O)cc3)ccc21", "note": "(stereo unspecified)", "melting point": "213 to 214"}
{"molecule": "COCCOc1ccccc1S(=O)(=O)NC(=O)Nc1nc(Cl)cc(OC)n1", "melting point": "166 to 168"}
{"molecule": "O=C(O)COc1ccc(C(=O)c2ccccc2O)c(Cl)c1Cl", "melting point": "201 to 203"}
{"molecule": "Fc1cc(F)c(-c2c(Cl)nc3nccnc3c2Cl)c(F)c1", "melting point": "139 to 141"}
{"molecule": "COC(=O)c1cncc(OC2SCC(O)C(O)C2O)c1", "note": "(stereo unspecified)", "melting point": 137}
{"molecule": "COCC(=O)NC(CC(=O)Nc1n[nH]c(=S)s1)c1ccccc1", "note": "(stereo unspecified)", "melting point": "241 to 242"}
{"molecule": "CCCc1nc2c(N)nc3ccc(Br)cc3c2s1", "melting point": "177 to 180"}
{"molecule": "Nc1c(Cl)cc(Cl)c(-c2nsc(C(F)(F)F)c2Cl)c1Br", "melting point": "77 to 78"}
{"molecule": "CC12CC(N3CCC(=O)CC3)C(O)CC1CCC1C2CCC2(C)C(O)C(N3CCCC3)CC12", "note": "(stereo unspecified)", "melting point": "136 to 138"}
{"molecule": "Cc1ccc(C(O)C2C(c3ccccc3)CC(=O)N2C)s1", "note": "(stereo unspecified)", "melting point": "185 to 188"}
{"molecule": "CN(C)Cc1sc(C(c2ccc(Cl)cc2)c2c(Cl)cc(-n3ncc(=O)[nH]c3=O)cc2Cl)nc1-c1ccccc1F", "note": "(stereo unspecified)", "melting point": 250}
{"molecule": "COc1ccc2c(C(=O)C(F)(F)F)c[nH]c2c1", "melting point": "206 to 208"}
{"molecule": "c1cc(-c2cccc3ncoc23)c2ocnc2c1", "melting point": "226 to 228"}
{"molecule": "O=C(OCC(Cl)(Cl)Cl)N1C2CCC1CC(Sc1ccccc1)C2", "note": "(stereo unspecified)", "melting point": "83 to 84.5"}
{"molecule": "Cc1cc(NC(=O)NN(c2ccccc2)c2cccc(CN)c2)ccc1N1CCCCC1=O", "melting point": "172 to 173"}
{"molecule": "O=S(=O)(Cl)C(F)(F)C(F)(F)C(F)(F)C(F)(F)C(F)(F)C(F)(F)C(F)(F)C(F)(F)F", "melting point": 36}
{"molecule": "CN(CCCCCCC(=O)O)c1cnc(-c2ccccc2)c(-c2ccccc2)n1", "melting point": "114 to 118"}
{"molecule": "CCCCCCCCCCCCCCCCCC(=O)NC(C)C(=O)NC(CCC(=O)NC(C=CCCC(=O)O)C(=O)O)C(=O)O", "note": "(stereo unspecified)", "melting point": 200}
{"molecule": "Cc1cc(C(O)CS(C)(=O)=O)cc(C)c1N(C)C", "note": "(stereo unspecified)", "melting point": "133 to 134"}
{"molecule": "COC(=O)OCc1cnc(C)c(OC(=O)OC)c1", "melting point": 65}
{"molecule": "C=CCNc1ccc(C(=O)O)cc1", "melting point": "144 to 146"}
{"molecule": "CCOC(=O)c1c(CN(CC)CC)nc2cc(OC)c(OC)cc2c1-c1ccc(Cl)c(Cl)c1", "melting point": "157 to 158"}
{"molecule": "COc1cc(CN2CCC(=C3c4ccccc4CCn4ccnc43)CC2)cc(OC)c1OCc1ccc2ccccc2n1", "melting point": 215}
{"molecule": "CO[C@@H]1CC[C@@H](NC(C)=O)c2ccccc21", "note": "(relative stereo)", "melting point": "97 to 100"}
{"molecule": "COc1ccc(Nc2nc(NC(C)C)nc(N(C)C3CCNCC3)n2)cc1Cl", "melting point": 129}
{"molecule": "Cc1ccccc1NC(=O)Nc1ccc(-c2c(CCO)sc3ncnc(N)c23)cc1", "melting point": "159 to 162"}
{"molecule": "ON=C(c1ccc(F)cc1)c1ccc(O)c(Cl)c1Cl", "melting point": "150 to 156"}
{"molecule": "CC1=C(Cl)CC2C(=O)OC(=O)C2C1", "note": "(stereo unspecified)", "melting point": "76 to 78"}
{"molecule": "Cc1cccc(Cl)c1C(=O)N[C@@H](Cc1ccc(-c2cccn(C)c2=O)cc1)C(=O)O", "melting point": "204 to 210"}
{"molecule": "Nc1ncc(-c2cccc(Nc3ccc(-c4ccco4)cc3[N+](=O)[O-])c2)cn1", "melting point": "178 to 180"}
{"molecule": "Cc1c(C=O)c2c(c(C)c1NC(=O)CC(C)(C)C)CC(C)(C)O2", "melting point": "180 to 181"}
{"molecule": "COc1ccc2c(c1)C(=O)NCc1c(-c3nc(C4CC4)no3)ncn1-2", "melting point": 245}
{"molecule": "CCOc1cc([C@H]2COCC[C@H]2NC(=O)c2ccc(C(=O)OC)cc2)ccc1OC", "melting point": "166 to 168"}
{"molecule": "CC(C#N)c1c(Cl)cc([N+](=O)[O-])cc1Cl", "note": "(stereo unspecified)", "melting point": 72}
{"molecule": "CC(=O)ON(C)C(=O)/C=C/c1ccc(-n2c(C)ccc2C)cc1", "melting point": "120 to 121"}
{"molecule": "FC(F)(F)c1ccc(/C=C/C2=CCN(Cc3c[nH]c4ncccc34)CC2)cc1", "melting point": "203 to 205"}
{"molecule": "CCN1C(=O)CCCc2ccc(Nc3ncc(Cl)c(Nc4c(C)cccc4C(=O)NC)n3)cc21", "melting point": "210 to 212"}
{"molecule": "CN1CCC(NC(c2cccc(O)c2)c2nc3ccccc3[nH]2)CC1", "note": "(stereo unspecified)", "melting point": 230}
{"molecule": "CN1C(C(=O)Nc2cc(Cl)ncn2)=C(O)c2ccc3ccccc3c2S1(=O)=O", "melting point": 263}
{"molecule": "Cc1c(CC(=O)O)c2cc(O)ccc2n1C(=O)c1ccc(Cl)c(Cl)c1", "melting point": "177 to 179"}
{"molecule": "COP(=O)(OC)C(NC=O)P(=O)(OC)OC", "melting point": 95}
{"molecule": "CCOC(=O)c1cccc(N)c1NCc1ccc(-c2ccccc2C#N)cc1", "melting point": "104 to 105"}
{"molecule": "CCCCn1c(=O)c2c(ncn2S(=O)(=O)c2ccc(NO)cc2)n(CCCC)c1=O", "melting point": "148 to 150"}
{"molecule": "CC1(C)CC(=O)c2c(nc(Cc3ccc(O)c(F)c3)c3[nH]c4ccccc4c23)C1", "melting point": "216 to 218"}
{"molecule": "O=C(O)COc1ccc(C(=O)c2cccc(Cl)c2)c(Cl)c1Cl", "melting point": "155 to 156"}
{"molecule": "COc1ccc(O)c(CN2CCN(C(=S)SC)CC2)c1", "melting point": 112}
{"molecule": "COc1cc(NNc2nccc(Nc3ccc4nc(C)[nH]c4c3)n2)cc(OC)c1OC", "melting point": 179}
{"molecule": "CCCCc1c(OCCN2CCOCC2)c2c(OCCN3CCOCC3)cc(OCCN3CCOCC3)cc2oc1=O", "melting point": 131}
{"molecule": "N=C(N)NCCCCOc1ccc2c(c1)CC(CCC(=O)O)C(=O)N2", "note": "(stereo unspecified)", "melting point": "152 to 155"}
{"molecule": "O=C(c1cc2ccccc2o1)C12CC3CC(CC(C3)C1)C2", "melting point": "129 to 131"}
{"molecule": "Cc1cccc(C)c1NC(=O)NCCCc1cc(-c2ccccc2)n(-c2ccc(S(N)(=O)=O)cc2)n1", "melting point": "138 to 141"}
{"molecule": "Cc1oc2cc(C(CC(=O)O)CC(=O)O)ccc2c1C", "melting point": "190 to 192"}
{"molecule": "C#CC(C)(C)N1CCC(N2CCN(CCCN3CCCCC3)C2=C(C#N)C#N)CC1", "melting point": "112 to 115"}
{"molecule": "Cn1nc(C=O)cc1C(C)(C)CNC(=O)c1ccccc1", "melting point": "150 to 151"}
{"molecule": "O=C(Nc1ccccc1)Nc1cccc(-c2c(-c3ccccc3)cnc3c(C(F)(F)F)cccc23)c1", "melting point": "202 to 205"}
{"molecule": "COc1ccc(O)c(CC=Cc2ccccc2C#N)c1", "melting point": "72 to 74"}
{"molecule": "COc1ccc2cc(C(=O)C(C)N3CCN(Cc4ccccc4)CC3)ccc2c1", "note": "(stereo unspecified)", "melting point": "149 to 150"}
{"molecule": "CC(C)NC(=O)N1CCC(CN2C(=O)C3(COc4cc5c(cc43)CCO5)c3ccccc32)C1", "note": "(stereo unspecified)", "melting point": "107 to 115"}
{"molecule": "CCN[C@H]1C[C@H](CCCOCCOC)S(=O)(=O)c2sc(S(N)(=O)=O)cc21", "note": "(relative stereo)", "melting point": "177 to 179"}
{"molecule": "CC1OC(=O)C(c2cccc(C(F)(F)F)c2)=C1O", "note": "(stereo unspecified)", "melting point": 175}
{"molecule": "O=[N+]([O-])c1cc(Cl)c(Cl)cc1NCCCCl", "melting point": 78}
{"molecule": "Cc1c(C)c2c(c(C)c1NC(=O)c1ccc(F)cc1)C(c1ccc(F)cc1)C(C)(C)O2", "note": "(stereo unspecified)", "melting point": "140 to 142"}
{"molecule": "CCOCc1cncc(-c2ccc3c(c2)nc(N)c2nc(COCC)n(CC(C)(C)O)c23)c1", "melting point": 156}
{"molecule": "CCC(NC(=S)Nc1nc(C)cs1)C(C)C", "note": "(stereo unspecified)", "melting point": "164 to 166"}
{"molecule": "COc1ccc2c(n1)C1(CO2)C(=O)N(Cc2ncc(Cl)n2C)c2ccccc21", "note": "(stereo unspecified)", "melting point": "169 to 171"}
{"molecule": "CCCC(c1ccc(C(=O)O)cc1)N(CCC)c1nc(-c2ccc(Cl)cc2Cl)c(C)s1", "note": "(stereo unspecified)", "melting point": 86}
{"molecule": "Oc1cccc(-c2nc(COc3ccc(CCCn4ccnc4)cc3)co2)c1", "melting point": "164 to 165"}
{"molecule": "O=C(CN1CCN(c2ccc(NC(=O)c3ccccc3-c3ccc(C(F)(F)F)cc3)cc2)CC1)NCc1cccc(-c2ccccc2)c1", "melting point": "165 to 167"}
{"molecule": "CCOc1ccc(S(=O)(=O)NCc2ccccn2)cc1-c1nc2cccnc2c(=O)[nH]1", "melting point": "230 to 231"}
{"molecule": "O=S(=O)(Nc1ccc(Cl)cc1)c1ccc(Cl)cc1", "melting point": "144 to 146"}
{"molecule": "CC(C)c1cc(C(=O)O)sc1C(C)C", "melting point": "149 to 151"}
{"molecule": "CC1(C)CCC(C)(C)c2cc(C(=O)COc3ccc(C(=O)OCc4ccccc4)c(O)c3)ccc21", "melting point": "103 to 104"}
{"molecule": "O=C(Nc1ccc(Br)c2ccccc12)c1cc(F)cc(N2CCOCC2)c1", "melting point": "187 to 189"}
{"molecule": "O=C(NCCN(CCNC(=O)OCCO)c1nc(Cl)nc(N(CCNC(=O)OCCO)CCNC(=O)OCCO)n1)OCCO", "melting point": 174}
{"molecule": "[N-]=[N+]=Nc1cnn(-c2cc(-c3ccnc(Nc4cccc(Cl)c4)n3)ccn2)c(=O)c1Cl", "melting point": "184 to 186"}
{"molecule": "COCC(=O)N[C@H]1CC[C@H](CCN2CCN(c3nccc4c3CCO4)CC2)CC1", "melting point": 170}
{"molecule": "CC(C)(C)CC(NC(=O)c1ccc(C(F)(F)F)cc1)NC(=NS(=O)(=O)C(F)(F)F)Nc1cccnc1", "note": "(stereo unspecified)", "melting point": "192 to 193"}
{"molecule": "CC(C)(C)CC(C)(C)c1cc(Cc2cc(C(C)(C)CC(C)(C)C)cc(C(C)(C)CC(C)(C)C)c2O)c(O)c(-n2nc3ccccc3n2)c1", "melting point": 174}
{"molecule": "Cn1c(-c2cc(C(F)(F)F)nn2-c2ncccc2Cl)nc2c(Cl)cccc2c1=O", "melting point": "155 to 157"}
{"molecule": "COc1ccc(-n2cnnc2S(C)(=O)=O)cc1", "melting point": 191}
{"molecule": "O=C(/C=C/C=C(c1ccc(C(F)(F)F)cc1)c1ccc(C(F)(F)F)cc1)Nc1cccc2cnccc12", "melting point": "164 to 166"}
{"molecule": "CSc1ccc(C=CC(N)=O)cc1", "melting point": 193}
